From patent US20240423973A1, “COMPOUNDS, PHARMACEUTICAL COMPOSITIONS, AND METHODS FOR THE TREATMENT, PREVENTION, OR MANAGEMENT OF HYPERPROLIFERATIVE DISORDERS” (VINCERX PHARMA GMBH, priority 2021, published 2024)
Where a name gives a salt, the structure may show the parent alone. *1 amine or outer side, *2 acyl side, *3 side chain or, on linkers, in order; H or OH if unused. Where a SMILES comes first, the peptide text is derived from it. Bridges are numbered along the chain shown (N, C = ends). Roman numbers before positions name the chains, in order. [ ]: non-standard residue; d: D form. The star is where a group is joined. X1 = CCCNC(=O)Nc1cccc(S(=O)(=O)Nc2cccc([C@@H](CC(=O)O)NC(=O)Nc3ccc(N*)cc3)c2)c1; Camptothecin(7-Et) = CCc1c2c(nc3ccccc13)-c1cc3c(c(=O)n1C2)COC(=O)[C@@]3(CC)O*; Glutaryl = O=C(CCCC(=O)[*:2])[*:1]; PEG3 = NCCOCCOCCOCCC(=O)O; CO = O=C([*:1])[*:2]; Sar = CNCC(=O)O

Tests used:
[1] = Pharmacokinetics in rat after intravenous administration; assay type: in vivo; conditions: male rats, intravenous 0.5 mg/kg bolus, plasma, non-compartmental analysis; for Vd: read-out: Vss
Method: Male rats (n=3) were given an intravenous 0.5 mg/kg bolus dose of test article dissolved in plasma with 1% DMSO and 1% ethanol (Ex A3 only). Serial blood samples were collected up to 24 hours post-dose. Plasma was harvested from blood samples and stored frozen until sample analysis. Test article plasma concentrations were analyzed by LC/MS/MS.

[2] = system: HT29; experiment: Cytotoxicity in vitro in the presence and absence of elastase (MTT assay); assay type: cell-based, human; conditions: HT29 cells, 72 h
Method: (§1) Cultivation of cells was performed according to standard procedures with the media recommended by the provider. The cells, in a total volume of 100 μL, were seeded in a 96-well plate with a white bottom (#3610). After a 24 h incubation period at 37° C. and 5% CO2, the medium was exchanged by adding 90 μL fresh medium. The treatment started by adding the test compound in 10 μL of culture medium to the cells in triplicates. Concentrations ranging from 10^−5 M to 10^−13 M were chosen. Two identically treated sets of samples were prepared. One set was treated with the test compound alone, whereas to the second set the compound and 10 nM elastase was added followed by a 72 h incubation period at 37° C. and 5% CO2. The proliferation was detected using the MTT assay (ATCC). At the end of the incubation period the MTT reagent was added to all samples for 4h. Lysis of the cells followed by addition of the detergent was done overnight. The formed dye was detected at 570 nm. The proliferation of untreated but otherwise identically handled cells was define as the […].

[3] = system: 786-O; experiment: as above; assay type: cell-based, human; conditions: 786-O cells, 72 h
Method: as §1

[4] = system: NCI H292; experiment: as above; assay type: cell-based, human; conditions: NCI H292 cells, 72 h
Method: as §1

[5] = system: SUM149; experiment: as above; assay type: cell-based; conditions: SUM149 cells, 72 h
Method: as §1

Row | SMILES | AUC [1] [ng·h/mL] | clearance [1] [mL/min/kg] | half-life [1] [h] | Vd [1] [L/kg] | IC50 ([2]; compound alone (no elastase)) [nM] | IC50 ([2]; with 10 nM elastase) [nM] | IC50 ([3]; compound alone (no elastase)) [nM] | IC50 ([3]; with 10 nM elastase) [nM] | IC50 ([4]; compound alone (no elastase)) [nM] | IC50 ([4]; with 10 nM elastase) [nM] | IC50 ([5]; compound alone (no elastase)) [nM] | IC50 ([5]; with 10 nM elastase) [nM]
1 | CCCNC(=O)Nc1cccc(S(=O)(=O)Nc2cccc([C@@H](CC(=O)O)NC(=O)Nc3ccc(NC(=O)NCCOCCOCCOCCC(=O)NCCCC[C@H](NC(=O)CCOCCOCCOCCNC(=O)Nc4ccc(NC(=O)N[C@H](CC(=O)O)c5cccc(NS(=O)(=O)c6cccc(NC(=O)NCCC)c6)c5)cc4)C(=O)NCCOCCOCCOCCC(=O)N[C@@H](CC(=O)O)C(=O)N4CCC[C@H]4C(=O)N[C@H](C(=O)O[C@]4(CC)C(=O)OCc5c4cc4n(c5=O)Cc5c-4nc4ccccc4c5CC)C(C)C)cc3)c2)c1 [Compound A3] | 50000 to 150000 | 0.05 to 0.5 | 10 to 15 | 0.01 to 0.1 | – | – | – | – | – | – | – | –
2 | CCCNC(=O)Nc1cccc(S(=O)(=O)Nc2cccc([C@@H](CC(=O)O)NC(=O)Nc3ccc(NC(=O)NCCOCCOCCOCCC(=O)N[C@@H](CC(=O)OCC[N+](C)(C)C)C(=O)N4CCC[C@H]4C(=O)N[C@H](C(=O)O[C@]4(CC)C(=O)OCc5c4cc4n(c5=O)Cc5c-4nc4ccccc4c5CC)C(C)C)cc3)c2)c1 [Compound C1, trifluoroacetate] | – | – | – | – | 10 to 100 | 0.01 to 0.1 | 10 to 100 | 0.01 to 0.1 | 10 to 100 | 0.01 to 0.1 | 10 to 100 | 0.01 to 0.1
3 | CCCNC(=O)Nc1cccc(S(=O)(=O)Nc2cccc([C@@H](CC(=O)O)N(C(=O)NC(N)=O)c3ccc(NCCCCOC(=O)C[C@H](NC(=O)CCOCCOCCOCCNc4ccc(N(C(=O)NC(N)=O)[C@H](CC(=O)O)c5cccc(NS(=O)(=O)c6cccc(NC(=O)NCCC)c6)c5)cc4)C(=O)N4CCC[C@H]4C(=O)N[C@H](C(=O)O[C@]4(CC)C(=O)OCc5c4cc4n(c5=O)Cc5c-4nc4ccccc4c5CC)C(C)C)cc3)c2)c1 [Compound C4] | – | – | – | – | > 100 | 0.01 to 0.1 | 10 to 100 | 0.01 to 0.1 | 1.1 to 10 | 0.01 to 0.1 | 1.1 to 10 | 0.01 to 0.1
4 | CCCNC(=O)Nc1cccc(S(=O)(=O)Nc2cccc([C@@H](CC(=O)O)NC(=O)Nc3ccc(NC(=O)NCCOCCOCCOCCC(=O)N[C@@H](CC(=O)OCCCCN(C)C)C(=O)N4CCC[C@H]4C(=O)N[C@H](C(=O)O[C@]4(CC)C(=O)OCc5c4cc4n(c5=O)Cc5c-4nc4ccccc4c5CC)C(C)C)cc3)c2)c1 [Compound C6, sodium (3R)-3-[({4-[({(10S)-10-[(2S)-2-{[(2S)-1-{[(4S)-4,11-diethyl-3,14-dioxo-3,4,12,14-tetrahydro-1H-pyrano[3′,4′:6,7]indolizino[1,2-b]quinolin-4-yl]oxy}-3-methyl-1-oxobutan-2-yl]carbamoyl}pyrrolidine-1-carbonyl]-2-methyl-8,12-dioxo-7,15,18,21-tetraoxa-2,11-diazatricosan-23-yl}carbamoyl)amino]phenyl}carbamoyl)amino]-3-[3-({3-[(propylcarbamoyl)amino]benzene-1-sulfonyl}amino)phenyl]propanoate] | – | – | – | – | 10 to 100 | 0.1 to 1 | 10 to 100 | 0.1 to 1 | 10 to 100 | 0.1 to 1 | 10 to 100 | 0.01 to 0.1
5 | CCCNC(=O)Nc1cccc(S(=O)(=O)Nc2cccc([C@@H](CC(=O)OCCCCN)NC(=O)Nc3ccc(NC(=O)NCCOCCOCCOCCC(=O)N[C@@H](CC(=O)OCCCCN)C(=O)N4CCC[C@H]4C(=O)N[C@H](C(=O)O[C@]4(CC)C(=O)OCc5c4cc4n(c5=O)Cc5c-4nc4ccccc4c5CC)C(C)C)cc3)c2)c1 [Compound C7] | – | – | – | – | > 100 | 0.1 to 1 | 10 to 100 | 0.1 to 1 | 1.1 to 10 | 0.01 to 0.1 | 1.1 to 10 | < 0.01
6 | CCCNC(=O)Nc1cccc(S(=O)(=O)Nc2cccc([C@@H](CC(=O)OCCCN)NC(=O)Nc3ccc(NC(=O)NCCOCCOCCOCCC(=O)N[C@@H](CC(=O)OCCCN)C(=O)N4CCC[C@H]4C(=O)N[C@H](C(=O)O[C@]4(CC)C(=O)OCc5c4cc4n(c5=O)Cc5c-4nc4ccccc4c5CC)C(C)C)cc3)c2)c1 [Compound C8] | – | – | – | – | > 100 | 0.1 to 1 | 10 to 100 | 0.1 to 1 | 1.1 to 10 | 0.1 to 1 | 1.1 to 10 | 0.1 to 1
7 | CCCNC(=O)Nc1cccc(S(=O)(=O)Nc2cccc([C@@H](CC(=O)OCC[N+](C)(C)C)NC(=O)Nc3ccc(NC(=O)NCCOCCOCCOCCC(=O)N[C@@H](CC(=O)OCC[N+](C)(C)C)C(=O)N4CCC[C@H]4C(=O)N[C@H](C(=O)O[C@]4(CC)C(=O)OCc5c4cc4n(c5=O)Cc5c-4nc4ccccc4c5CC)C(C)C)cc3)c2)c1 [Compound C9] | – | – | – | – | 10 to 100 | 0.1 to 1 | 10 to 100 | 1.1 to 10 | 10 to 100 | 0.1 to 1 | 10 to 100 | 0.1 to 1
8 | CCCNC(=O)Nc1cccc(S(=O)(=O)Nc2cccc([C@@H](CC(=O)O)NC(=O)Nc3ccc(NC(=O)NCCN(C)CCN(C)CCN(C)CC(=O)NCCN(C)CCN(C)CCN(C)CC(=O)N[C@@H](CC(N)=O)C(=O)N4CCC[C@H]4C(=O)N[C@H](C(=O)O[C@]4(CC)C(=O)OCc5c4cc4n(c5=O)Cc5c-4nc4ccccc4c5CC)C(C)C)cc3)c2)c1 [Compound D1] | – | – | – | – | 10 to 100 | 1.1 to 10 | 10 to 100 | 1.1 to 10 | 10 to 100 | 1.1 to 10 | 10 to 100 | 0.1 to 1
9 | CCCNC(=O)Nc1cccc(S(=O)(=O)Nc2cccc([C@H](CC(=O)O)NC(=O)Nc3ccc(NC(=O)NCCN(C)CCN(C)CCN(C)CC(=O)NCCN(C)CCN(C)CCN(C)CC(=O)N[C@@H](CC(N)=O)C(=O)N4CCC[C@H]4C(=O)N[C@H](C(=O)O[C@]4(CC)C(=O)OCc5c4cc4n(c5=O)Cc5c-4nc4ccccc4c5CC)C(C)C)cc3)c2)c1 [Compound D2] | – | – | – | – | 10 to 100 | 0.1 to 1 | 10 to 100 | 0.1 to 1 | 10 to 100 | 0.1 to 1 | 1.1 to 10 | 0.1 to 1
10 | CCCNC(=O)Nc1cccc(S(=O)(=O)Nc2cccc([C@@H](CC(=O)O)NC(=O)Nc3ccc(NC(=O)NCCOCCOCCOCCC(=O)N[C@@H](CCCCNC(=O)CCCC(=O)NCCOCCOCCOCCC(=O)N[C@@H](CC(=O)O)C(=O)N4CCC[C@H]4C(=O)N[C@H](C(=O)O[C@]4(CC)C(=O)OCc5c4cc4n(c5=O)Cc5c-4nc4ccccc4c5CC)C(C)C)C(=O)NCCC(=O)O)cc3)c2)c1 [Compound E1] | 10000 to 50000 | 0.5 to 5 | 5 to 10 | > 0.1 | – | – | – | – | – | – | – | –
11 | CCCNC(=O)Nc1cccc(S(=O)(=O)Nc2cccc([C@@H](CC(=O)O)NC(=O)Nc3ccc(NC(=O)NCCOCCOCCOCCC(=O)N[C@@H](CCCCNC(=O)CCCC(=O)NCCOCCOCCOCCC(=O)N[C@@H](CC(=O)O)C(=O)N4CCC[C@H]4C(=O)N[C@H](C(=O)O[C@]4(CC)C(=O)OCc5c4cc4n(c5=O)Cc5c-4nc4ccccc4c5CC)C(C)C)C(=O)NCCCCCCCC(=O)O)cc3)c2)c1 [Compound E2] | 50000 to 150000 | 0.5 to 5 | 5 to 10 | 0.01 to 0.1 | – | – | – | – | – | – | – | –
12 | CCCNC(=O)Nc1cccc(S(=O)(=O)Nc2cccc([C@@H](CC(=O)O)NC(=O)Nc3ccc(NC(=O)NCCOCCOCCOCCC(=O)N[C@@H](CCCCNC(=O)CCCC(=O)N(C)CC(=O)N(C)CC(=O)N(C)CC(=O)N(C)CC(=O)O)C(=O)NCCOCCOCCOCCC(=O)N[C@@H](CC(=O)O)C(=O)N4CCC[C@H]4C(=O)N[C@H](C(=O)O[C@]4(CC)C(=O)OCc5c4cc4n(c5=O)Cc5c-4nc4ccccc4c5CC)C(C)C)cc3)c2)c1 [Compound E3] (I: {X1-CO-PEG3}-K[PEG3]DPV-{Camptothecin(7-Et)} / II: [Sar][Sar][Sar][Sar]-OH; linker I:1-II:N via Glutaryl) | 10000 to 50000 | 0.5 to 5 | 5 to 10 | > 0.1 | – | – | – | – | – | – | – | –
